Melting point, Marker and Change % data for 4 compounds are collected here from patent US9005314B2, “Biphenyl benzyl ether marker compounds for liquid hydrocarbons and other fuels and oils” (Dow Global Technologies LLC, priority 2010, dated 2015).

Series [1] in a line: Laundering stability/extractability of marker in xylene solution, GC analysis versus un-laundered reference. It is filed as physicochemical. The conditions noted are these: 8 hours; for Marker: 95:5 marked xylenes:agent, relative to control = 100; for Change %: versus control. How it is done:
(§1) The stability and extractability of a representative marker was performed using xylene solutions containing between 100-1000 ppm maker and an equivalent amount of squalene internal reference standard using the following protocols:
Mix 95 parts marked xylenes with 5 parts laundering agent in a 100 mL vial. Mix gently for 8 hours using a magnetic stir bar. Stop mixing and remove a xylene solution aliquot. Analyze by GC and compare marker response to reference (un-laundered) sample.
(§2) Laundering Agents: • 1) 5% sulfuric acid • 2) 98% sulfuric acid • 3) 5% NaOH solution • 4) 50% NaOH solution To test for metal adsorptivity, 100 mL marked xylene tests solution is treated with 5 grams metal shavings at room temperature for 8 hours. GC analysis is again used to determine any loss of marker to the metal surface.

Series [2] in a line: Metal adsorptivity: marked xylene treated with metal shavings, GC analysis. The conditions noted are these: 100 mL marked xylene, 5 grams metal shavings, room temperature, 8 hours. It is filed as physicochemical. How it is done: as §1, §2

What is called melting point is the temperature, or range, at which the solid turns liquid. Regarding `Cc1ccccc1OCc1ccc(-c2ccc(COc3ccccc3C)cc2)cc1` [4,4′-bis(2-methylphenoxymethyl)-1,1′-biphenyl], the melting point is 209 °C.

On to `Cc1ccc(OCc2ccc(-c3ccc(COc4ccc(C)cc4)cc3)cc2)cc1` [4,4′-bis(4-methylphenoxymethyl)-1,1′-biphenyl], for which the melting point stood at 206 °C.

In turn, `c1ccc(OCc2ccc(-c3ccc(COc4ccccc4)cc3)cc2)cc1` [4,4′-bis(phenoxymethyl)-1,1′-biphenyl] displayed a melting point of 176 °C. In series [1] (5% H2SO4 laundering agent), the Marker amounted to 85.51 and the Change % was −14.49%. Also, in series [1] (5% NaOH laundering agent), the Marker turned out to be 100.01 and the Change % came out at 0.01%. Moreover, in series [1] (50% NaOH laundering agent), the Marker is 101.85 and the Change % is reported as 1.85%. Further, in series [1] (98% H2SO4 laundering agent), the Marker is recorded as 0.00 and the Change % is on record as −100.00%. Moreover, in series [2], the Change % result is given as “+4%” and the Marker stood at 104%.

Turning to `CC(C)(C)c1ccc(OCc2ccc(-c3ccc(COc4ccc(C(C)(C)C)cc4)cc3)cc2)cc1` [Example 4, 4,4′-bis(4-t-butylphenoxymethyl)-1,1′-biphenyl], the melting point amounted to 218 °C.
